Laboratory results published in patent publication US20150337351A1, “METHODS OF MICROORGANISM IMMOBILIZATION” (priority 2014, published 2015).

How the values were obtained:
[1] = tested on: Pseudomonas aeruginosa IHMA 519749 (Paer); assay: Biosensor mixed species diffusion assay (immobilized cells, microscopic detection), growth of resistant strain; type: cell-based; details: for Paer growth?: CAZ 16 (16 μg/mL), MHA 0.850% agar, 4 hours
Procedure: (§1) A mixed species diffusion variation of Hodge test using a biosensor with immobilized cells and microscopic detection was performed using the same bacterial strains. Heavy suspensions of Ecol and Paer were prepared in L-histidine buffer from fresh overnight blood agar plates. Heavy suspensions were diluted in normal saline to produce 0.5 McFarland suspensions, noting the volumes of each suspension required and using the same volumes to produce 10^8 cfu/mL suspensions of each strain in L-histidine. These suspensions were further diluted to create […] and 2×10^5 cfu/mL suspensions for heavy and moderate density working samples. The working samples were then diluted 1:1 in 2 mM L-DOPA for EKC.
(§2) The strains were next introduced to a biosensor for EKC, immobilization, and detection. Paer suspensions were loaded first, placing 5 uL in the exit port side (to maintain the resistant Paer isolate in one half of each channel) of each biosensor flowcell channel to cover one half of the flowcell. Six flowcells were loaded with each concentration. EKC was performed for 5 minutes at 1.5V, and then all flowcells were washed with two aliquots of 160 μL 1 mM L-DOPA (from the entry port). Ecol suspensions were next loaded, introducing 20 μL of cells suspension from the entry port to cover the full flowcell. Six flowcells were loaded with each concentration. EKC was performed for 5 minutes at 1.5V, and all flowcells washed with 160 μL of 1/10 MHB. The manner in which the cells were introduced and captures created a site comprising Ecol cells that were distal from any Paer cells (i.e., on the entry port side of the flowcell), as well as Ecol cells that were proximal to the Paer cells (i.e., on the exit port side of the flowcell).
(§3) Antibiotic media were prepared for immobilization and inhibition testing as follows. […] An immobilization medium source plate was prepared in the detection system and maintained at 45° C. The source plate wells were loaded with 20 μL of the 10× stocks and MHB without antibiotic for growth controls. The sample cassette was placed in the detection system and maintained at 40° C. A 180 uL volume of 0.944% MHA was added to each well of the source plate and mixed, and 100 uL of pre-immobilization immobilizing medium (with an agar concentration of 0.850%) was withdrawn and introduced to a flowcell in accordance with the experimental design. The loaded biosensor was allowed to equilibrate for 5 minutes, and was then removed and cooled for 5 minutes to induce the agar immobilizing agent to change to solid phase. The flowcell ports were then sealed, and growth, imaging, and analysis were performed, with examination of each flowcell for growth of Paer, examination of the distal portion of each flowcell for growth of Ecol in the absence of Paer (distal sensitivity), and examination of the proximal portion of each flowcell for growth of Ecol in the presence of Paer (proximal resistance), indicative of a positive mixed species resistance due to diffusion of metallo-beta-lactamase.
(§4) In order to test for enzyme-mediated cross-species resistance effects, a method for was devised to test a sensitive strain, Escherichia coli ATCC 25922 (Ecol), in the presence of a resistant strain, Pseudomonas aeruginosa IHMA 519749 (Paer) in the immobilized format. The method involved first immobilizing the resistant strain on the surface of a portion of each test flowcell of the cassette (approximately half) and then immobilizing the sensitive (sentinel) strain on the surface of the full flowcell including the area containing the resistant strain. This strategy provides an internal control for treatment effects on the sentinel strain in an area far from the resistant strain along with an area where close-field effects can be observed in the same flowcell. […]

[2] = tested on: P. aeruginosa 519749 (Paer); assay: Plate-based disk diffusion tests, resistant strain; type: cell-based, Pseudomonas aeruginosa; details: blood agar lawn plates, antibiotic disk, overnight at 35° C.
Procedure: (§5) Several nutrient agar plating methods employing antibiotics, other chemicals, and one or more species of bacteria have been devised to study these mechanisms. The most basic of these tests, the disk-diffusion method, employs a single test strain of bacteria which is used to create a uniform layer or lawn when grown. A disk-containing antibiotic is placed on the inoculated plate and the plate is then incubated to grow the lawn. In cases where the strain is sensitive to the antibiotic, a zone of no growth is observed around the disk. The distance from the disk to the edge of this zone is an indicator of the level of resistance to the antibiotic present in the disk, based on how far the antibiotic can diffuse into the nutrient medium. A variation on this test is to employ a second disk or drop of fluid near the antibiotic disk that contains a chemical that can affect the antibiotic response. Differences between the zone in areas near the chemical and away from the chemical can indicate the type of resistance mechanism at work in the test. In this case, the chelating agent ethylenediamine tetraacetic acid (EDTA) (Sigma-Aldrich) can be used to test for the presence of a class of antibiotic resistance enzyme called metallo-beta-lactamase, which is inhibited by EDTA. The positive result for this test is a larger zone of inhibition near the EDTA indicating reduced effectiveness of the enzyme. […]

E. coli 25922 (Ecol) = assay: Plate-based disk diffusion tests, sensitive strain; type: cell-based, Escherichia coli; details: blood agar lawn plates, antibiotic disk, overnight at 35° C.
Procedure: as §5

[3] = tested on: Escherichia coli ATCC 25922 (Ecol); assay: Biosensor mixed species diffusion assay (immobilized cells, microscopic detection), growth of sentinel strain; type: cell-based; details: for Mixed species resistance factor diffusion? / Ecol growth in distal site? / Ecol growth in proximal site?: CAZ 16 (16 μg/mL); for Ecol growth in distal site?: distal from Paer; for Ecol growth in proximal site?: proximal to Paer
Procedure: as §1, §2, §3, §4

[4] = Flowcell 5, Ecol 10^6/Paer 10^6
[5] = Flowcell 6, Ecol 10^6/Paer 10^5
[6] = Flowcell 7, Ecol 10^5/Paer 10^6
[7] = Flowcell 8, Ecol 10^5/Paer 10^5
[8] = Flowcell 5, Ecol 10^6/Paer 10^6, 4 hours
[9] = Flowcell 6, Ecol 10^6/Paer 10^5, 4 hours
[10] = Flowcell 7, Ecol 10^5/Paer 10^6, 4 hours
[11] = Flowcell 8, Ecol 10^5/Paer 10^5, 4 hours

SMILES: CC(C)(O/N=C(\C(=O)N[C@@H]1C(=O)N2C(C(=O)[O-])=C(C[n+]3ccccc3)CS[C@H]12)c1csc(N)n1)C(=O)O [CAZ, ceftazidime]
- Paer growth morphology and rate under antibiotic vs growth control ([1]; CAZ at 16 μg/mL, immobilized in MHA, proximal site): same morphology and growth rate as the growth control condition
- Paer growth? [1, 4]: Yes
- Paer growth? [1, 5]: Yes
- Paer growth? [1, 6]: Yes
- Paer growth? [1, 7]: Yes
- Resistance of Paer isolate in plating-based tests [2]: high resistance
- Zone of inhibition, Paer isolate [2]: no zone of inhibition observed
- Susceptibility of Ecol strain in plating-based tests (E. coli 25922 (Ecol)): sensitive
- Ecol growth and morphology under antibiotic (time-lapse images) ([3]; CAZ at 16 μg/mL, immobilized in MHA, 4 hours): slight growth or elongation of the single cell with later fading and in many colonies complete lysis
- Mixed species resistance factor diffusion? [3, 4]: No
- Ecol growth in distal site? [3, 8]: No
- Ecol growth in proximal site? [3, 8]: No
- Mixed species resistance factor diffusion? [3, 5]: No
- Ecol growth in distal site? [3, 9]: No
- Ecol growth in proximal site? [3, 9]: No
- Mixed species resistance factor diffusion? [3, 6]: No
- Ecol growth in distal site? [3, 10]: No
- Ecol growth in proximal site? [3, 10]: No
- Mixed species resistance factor diffusion? [3, 7]: No
- Ecol growth in distal site? [3, 11]: No
- Ecol growth in proximal site? [3, 11]: No
